Our source for the residual activity values is the kinase profiling compilation of Christmann-Franck et al. (2016).

Molecules are shown by their SMILES.

Sequence of RPS6KB2 (human) (Q9UBS0 whole entry, looked up): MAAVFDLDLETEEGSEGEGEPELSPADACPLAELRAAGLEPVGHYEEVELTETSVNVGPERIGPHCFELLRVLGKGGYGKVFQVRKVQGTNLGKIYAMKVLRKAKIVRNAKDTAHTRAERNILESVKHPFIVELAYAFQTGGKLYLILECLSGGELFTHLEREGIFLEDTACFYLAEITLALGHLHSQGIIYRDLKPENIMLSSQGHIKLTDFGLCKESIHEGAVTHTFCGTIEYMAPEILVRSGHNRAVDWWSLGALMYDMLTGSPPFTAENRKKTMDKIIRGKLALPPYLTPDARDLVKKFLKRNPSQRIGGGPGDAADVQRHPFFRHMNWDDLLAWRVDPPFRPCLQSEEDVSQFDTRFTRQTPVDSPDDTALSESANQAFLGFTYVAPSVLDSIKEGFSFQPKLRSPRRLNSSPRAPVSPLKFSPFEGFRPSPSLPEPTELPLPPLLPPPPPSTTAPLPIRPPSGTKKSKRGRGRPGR
Sequence of MAPK10 (human) (P53779 whole entry, looked up): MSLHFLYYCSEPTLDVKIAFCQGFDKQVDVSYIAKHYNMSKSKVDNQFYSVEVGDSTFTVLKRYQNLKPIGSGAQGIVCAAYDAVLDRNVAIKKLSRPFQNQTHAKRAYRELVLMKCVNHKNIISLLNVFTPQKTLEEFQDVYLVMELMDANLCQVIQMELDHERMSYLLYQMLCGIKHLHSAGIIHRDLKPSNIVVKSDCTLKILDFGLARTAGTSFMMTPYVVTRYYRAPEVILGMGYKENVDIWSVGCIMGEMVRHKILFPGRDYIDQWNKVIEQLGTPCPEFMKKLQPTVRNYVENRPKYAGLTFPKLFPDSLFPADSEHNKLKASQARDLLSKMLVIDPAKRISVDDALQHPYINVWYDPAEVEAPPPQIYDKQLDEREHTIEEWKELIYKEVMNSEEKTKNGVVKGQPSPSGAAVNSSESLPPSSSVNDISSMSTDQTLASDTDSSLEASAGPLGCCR
Sequence of NLK (human) (Q9UBE8 whole entry, looked up): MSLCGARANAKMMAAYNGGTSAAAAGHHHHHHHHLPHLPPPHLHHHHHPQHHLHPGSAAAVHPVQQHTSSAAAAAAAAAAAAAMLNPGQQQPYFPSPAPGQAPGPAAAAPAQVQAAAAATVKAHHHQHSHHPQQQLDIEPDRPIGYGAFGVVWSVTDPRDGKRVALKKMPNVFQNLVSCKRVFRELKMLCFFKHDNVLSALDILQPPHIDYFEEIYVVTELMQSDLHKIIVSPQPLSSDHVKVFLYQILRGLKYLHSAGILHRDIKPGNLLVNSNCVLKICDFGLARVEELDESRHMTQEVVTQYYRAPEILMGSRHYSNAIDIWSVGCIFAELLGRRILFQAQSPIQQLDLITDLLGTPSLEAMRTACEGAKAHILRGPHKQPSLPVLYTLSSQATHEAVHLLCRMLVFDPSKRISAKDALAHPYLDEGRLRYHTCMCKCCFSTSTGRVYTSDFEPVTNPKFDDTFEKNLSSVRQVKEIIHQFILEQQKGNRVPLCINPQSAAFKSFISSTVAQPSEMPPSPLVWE
Sequence of PAK6 (human) (Q9NQU5 whole entry, looked up): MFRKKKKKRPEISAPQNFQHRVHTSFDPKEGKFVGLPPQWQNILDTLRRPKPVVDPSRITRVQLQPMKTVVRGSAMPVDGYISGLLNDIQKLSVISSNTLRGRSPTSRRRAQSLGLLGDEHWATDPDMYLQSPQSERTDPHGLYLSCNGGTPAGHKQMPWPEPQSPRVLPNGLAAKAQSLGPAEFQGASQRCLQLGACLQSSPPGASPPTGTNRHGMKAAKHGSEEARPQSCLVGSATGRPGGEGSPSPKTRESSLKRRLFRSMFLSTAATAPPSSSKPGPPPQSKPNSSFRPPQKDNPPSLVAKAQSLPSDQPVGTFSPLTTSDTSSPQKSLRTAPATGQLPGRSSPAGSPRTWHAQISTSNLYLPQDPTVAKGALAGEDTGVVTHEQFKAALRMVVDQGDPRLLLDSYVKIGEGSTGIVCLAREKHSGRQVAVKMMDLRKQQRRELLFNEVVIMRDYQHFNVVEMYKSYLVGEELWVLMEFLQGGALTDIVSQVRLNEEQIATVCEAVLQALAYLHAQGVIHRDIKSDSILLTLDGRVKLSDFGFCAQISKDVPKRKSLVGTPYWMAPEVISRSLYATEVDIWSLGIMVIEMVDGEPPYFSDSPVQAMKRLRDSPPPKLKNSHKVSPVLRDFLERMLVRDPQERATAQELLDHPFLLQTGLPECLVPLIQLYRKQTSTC
Sequence of GRK4 (human) (P32298 whole entry, looked up): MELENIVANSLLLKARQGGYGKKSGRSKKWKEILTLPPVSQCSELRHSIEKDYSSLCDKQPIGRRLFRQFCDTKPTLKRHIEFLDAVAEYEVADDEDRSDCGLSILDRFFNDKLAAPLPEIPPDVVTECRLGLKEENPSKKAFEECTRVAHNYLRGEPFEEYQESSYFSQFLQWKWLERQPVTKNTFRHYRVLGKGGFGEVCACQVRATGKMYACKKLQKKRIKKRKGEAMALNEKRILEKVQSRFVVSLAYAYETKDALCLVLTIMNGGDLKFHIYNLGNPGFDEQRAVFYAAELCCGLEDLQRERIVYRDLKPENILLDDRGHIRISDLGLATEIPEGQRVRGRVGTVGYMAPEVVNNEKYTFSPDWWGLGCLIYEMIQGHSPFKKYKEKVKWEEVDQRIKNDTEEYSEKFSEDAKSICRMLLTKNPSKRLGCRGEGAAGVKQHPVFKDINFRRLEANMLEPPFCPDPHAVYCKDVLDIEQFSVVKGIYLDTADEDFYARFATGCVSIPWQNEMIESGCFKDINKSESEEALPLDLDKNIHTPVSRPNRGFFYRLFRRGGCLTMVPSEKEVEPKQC

The first assay addresses PAK6 (human) (UniProt Q9NQU5). As to the kind of experiment: radiometric filter-binding kinase assay, Kinase HotSpot. As to conditions: compound 0.5 µM; ATP 10 µM.
With `O=C1Nc2ccccc2/C1=C1/Nc2ccccc2/C1=N\OCCC(O)CO` (stereo not drawn), the residual activity was 93.5%.

Turning to `Nc1nnc2[nH]c3ccccc3nc1-2`, the residual activity was found to be 96.3%.

As to `Cn1sc(=O)n(Cc2ccccc2)c1=O`, the residual activity amounted to 93.4%.

A further assay has as its target GSK3B (human) (UniProt P49841). Described as above. The following applies: compound 0.5 µM; ATP 10 µM.
`O=C1Nc2ccccc2/C1=C1/Nc2ccccc2/C1=N\OCCC(O)CO` (stereo not drawn): the residual activity is 12.6%.

Consider `Nc1nnc2[nH]c3ccccc3nc1-2`, for which the residual activity was 99.7%.

As for `Cn1sc(=O)n(Cc2ccccc2)c1=O`, the residual activity came to 114%.

A further assay deals with PDPK1 (human) (UniProt O15530). Described as above. The following applies: compound 0.5 µM; ATP 10 µM.
Turning to `O=C1Nc2ccccc2/C1=C1/Nc2ccccc2/C1=N\OCCC(O)CO` (stereo not drawn), the residual activity was 83.3%.

In the case of `Nc1nnc2[nH]c3ccccc3nc1-2`, the residual activity amounted to 96.8%.

Take `Cn1sc(=O)n(Cc2ccccc2)c1=O`: the residual activity is 95.5%.

The target of the next assay is MLTK (human) (UniProt Q9NYL2). The assay is described as above. As to conditions: compound 0.5 µM; ATP 10 µM.
For the molecule `O=C1Nc2ccccc2/C1=C1/Nc2ccccc2/C1=N\OCCC(O)CO` (stereo not drawn), the residual activity is 76.4%.

Regarding `Nc1nnc2[nH]c3ccccc3nc1-2`, the residual activity was 96.3%.

As to `Cn1sc(=O)n(Cc2ccccc2)c1=O`, the residual activity came out at 100%.

The next assay addresses MAPK10 (human) (UniProt P53779). The description is as above. The following applies: compound 0.5 µM; ATP 10 µM.
As for `O=C1Nc2ccccc2/C1=C1/Nc2ccccc2/C1=N\OCCC(O)CO` (stereo not drawn), the residual activity worked out at 103%.

Regarding `Nc1nnc2[nH]c3ccccc3nc1-2`, the residual activity was determined as 92.1%.

For the molecule `Cn1sc(=O)n(Cc2ccccc2)c1=O`, the residual activity stood at 91.1%.

The next assay addresses MARK2 (human) (UniProt Q7KZI7). The description is as above. The following applies: compound 0.5 µM; ATP 10 µM.
With `O=C1Nc2ccccc2/C1=C1/Nc2ccccc2/C1=N\OCCC(O)CO` (stereo not drawn), the residual activity is 57.4%.

Regarding `Nc1nnc2[nH]c3ccccc3nc1-2`, the residual activity was 110%.

Take `Cn1sc(=O)n(Cc2ccccc2)c1=O`: the residual activity was found to be 118%.

A further assay has as its target FRK (human) (UniProt P42685). The assay is described as above. As to conditions: compound 0.5 µM; ATP 10 µM.
Regarding `O=C1Nc2ccccc2/C1=C1/Nc2ccccc2/C1=N\OCCC(O)CO` (stereo not drawn), the residual activity was 49.7%.

For the molecule `Nc1nnc2[nH]c3ccccc3nc1-2`, the residual activity stood at 96.8%.

Take `Cn1sc(=O)n(Cc2ccccc2)c1=O`: the residual activity came out at 112%.

A further assay concerns the target GRK4 (human) (UniProt P32298). Described as above. As to conditions: compound 0.5 µM; ATP 10 µM.
Regarding `O=C1Nc2ccccc2/C1=C1/Nc2ccccc2/C1=N\OCCC(O)CO` (stereo not drawn), the residual activity was 74.7%.

Consider `Nc1nnc2[nH]c3ccccc3nc1-2`, for which the residual activity was found to be 98.9%.

In the case of `Cn1sc(=O)n(Cc2ccccc2)c1=O`, the residual activity was 101%.

The target of the next assay is EPHA5 (human) (UniProt P54756). The assay is described as above. The following applies: compound 0.5 µM; ATP 10 µM.
In the case of `O=C1Nc2ccccc2/C1=C1/Nc2ccccc2/C1=N\OCCC(O)CO` (stereo not drawn), the residual activity was 68%.

On to `Nc1nnc2[nH]c3ccccc3nc1-2`, for which the residual activity came to 90.3%.

Turning to `Cn1sc(=O)n(Cc2ccccc2)c1=O`, the residual activity is 103%.

For the next assay, the target named is CDK6 CCND1 (human) (UniProt Q00534+P24385). The description is as above. As to conditions: compound 0.5 µM; ATP 10 µM.
Sequence of CDK6 CCND1 (human) (P24385 whole entry, looked up): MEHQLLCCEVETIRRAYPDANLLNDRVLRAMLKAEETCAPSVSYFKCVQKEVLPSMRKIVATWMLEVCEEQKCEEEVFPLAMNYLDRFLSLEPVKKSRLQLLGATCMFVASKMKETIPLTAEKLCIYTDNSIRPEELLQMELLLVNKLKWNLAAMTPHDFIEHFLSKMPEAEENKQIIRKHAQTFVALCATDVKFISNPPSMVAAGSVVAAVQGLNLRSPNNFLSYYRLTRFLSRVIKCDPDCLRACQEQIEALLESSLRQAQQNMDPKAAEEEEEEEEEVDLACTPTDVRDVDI
Sequence of CDK6 CCND1 (human) (Q00534 whole entry, looked up): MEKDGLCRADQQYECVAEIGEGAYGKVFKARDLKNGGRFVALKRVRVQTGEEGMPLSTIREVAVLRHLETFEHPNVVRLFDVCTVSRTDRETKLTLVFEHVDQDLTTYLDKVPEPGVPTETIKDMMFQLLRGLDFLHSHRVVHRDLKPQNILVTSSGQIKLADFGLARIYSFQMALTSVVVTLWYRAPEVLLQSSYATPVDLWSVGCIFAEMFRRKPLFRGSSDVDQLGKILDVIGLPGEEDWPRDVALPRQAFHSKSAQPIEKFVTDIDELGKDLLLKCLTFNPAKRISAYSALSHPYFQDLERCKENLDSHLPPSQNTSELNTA
With `O=C1Nc2ccccc2/C1=C1/Nc2ccccc2/C1=N\OCCC(O)CO` (stereo not drawn), the residual activity was found to be 27.7%.

For `Nc1nnc2[nH]c3ccccc3nc1-2`, the residual activity came to 105%.

Regarding `Cn1sc(=O)n(Cc2ccccc2)c1=O`, the residual activity came out at 106%.

The target in another assay is YES1 (human) (UniProt P07947). The description is as above. As to conditions: compound 0.5 µM; ATP 10 µM.
Regarding `O=C1Nc2ccccc2/C1=C1/Nc2ccccc2/C1=N\OCCC(O)CO` (stereo not drawn), the residual activity worked out at 13.4%.

As for `Nc1nnc2[nH]c3ccccc3nc1-2`, the residual activity was 97.1%.

In the case of `Cn1sc(=O)n(Cc2ccccc2)c1=O`, the residual activity stood at 96.3%.

In a further assay the target is STK4 (human) (UniProt Q13043). The assay is described as above. As to conditions: compound 0.5 µM; ATP 10 µM.
With `O=C1Nc2ccccc2/C1=C1/Nc2ccccc2/C1=N\OCCC(O)CO` (stereo not drawn), the residual activity was 8.29%.

With `Nc1nnc2[nH]c3ccccc3nc1-2`, the residual activity is 94.5%.

In the case of `Cn1sc(=O)n(Cc2ccccc2)c1=O`, the residual activity turned out to be 107%.

A further assay deals with PRKACA (human) (UniProt P17612). Described as above. The following applies: compound 0.5 µM; ATP 10 µM.
Regarding `O=C1Nc2ccccc2/C1=C1/Nc2ccccc2/C1=N\OCCC(O)CO` (stereo not drawn), the residual activity worked out at 89.1%.

Consider `Nc1nnc2[nH]c3ccccc3nc1-2`, for which the residual activity was 102%.

Take `Cn1sc(=O)n(Cc2ccccc2)c1=O`: the residual activity worked out at 105%.

The next assay concerns the target RPS6KB2 (human) (UniProt Q9UBS0). The description is as above. As to conditions: compound 0.5 µM; ATP 10 µM.
For `O=C1Nc2ccccc2/C1=C1/Nc2ccccc2/C1=N\OCCC(O)CO` (stereo not drawn), the residual activity stood at 106%.

With `Nc1nnc2[nH]c3ccccc3nc1-2`, the residual activity turned out to be 102%.

For the molecule `Cn1sc(=O)n(Cc2ccccc2)c1=O`, the residual activity came to 101%.

A further assay deals with CAMK1G (human) (UniProt Q96NX5). Described as above. As to conditions: compound 0.5 µM; ATP 10 µM.
Sequence of CAMK1G (human) (Q96NX5 whole entry, looked up): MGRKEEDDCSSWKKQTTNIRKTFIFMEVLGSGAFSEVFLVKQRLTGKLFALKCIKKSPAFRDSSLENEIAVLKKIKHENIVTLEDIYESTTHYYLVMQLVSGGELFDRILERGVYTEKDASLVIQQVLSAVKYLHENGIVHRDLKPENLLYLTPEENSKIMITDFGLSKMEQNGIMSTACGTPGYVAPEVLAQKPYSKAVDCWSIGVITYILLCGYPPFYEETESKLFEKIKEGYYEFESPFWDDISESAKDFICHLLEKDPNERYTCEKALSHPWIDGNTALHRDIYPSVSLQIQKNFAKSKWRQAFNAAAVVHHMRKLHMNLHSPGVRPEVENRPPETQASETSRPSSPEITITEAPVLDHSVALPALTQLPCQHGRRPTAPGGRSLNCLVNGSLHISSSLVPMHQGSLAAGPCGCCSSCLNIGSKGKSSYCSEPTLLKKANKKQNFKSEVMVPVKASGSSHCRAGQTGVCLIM
In the case of `O=C1Nc2ccccc2/C1=C1/Nc2ccccc2/C1=N\OCCC(O)CO` (stereo not drawn), the residual activity amounted to 102%.

In the case of `Nc1nnc2[nH]c3ccccc3nc1-2`, the residual activity was determined as 97.9%.

In the case of `Cn1sc(=O)n(Cc2ccccc2)c1=O`, the residual activity is 117%.

Another assay deals with MARK1 (human) (UniProt Q9P0L2). Described as above. The following applies: compound 0.5 µM; ATP 10 µM.
On to `O=C1Nc2ccccc2/C1=C1/Nc2ccccc2/C1=N\OCCC(O)CO` (stereo not drawn), for which the residual activity came to 60.5%.

Take `Nc1nnc2[nH]c3ccccc3nc1-2`: the residual activity amounted to 95.7%.

For the molecule `Cn1sc(=O)n(Cc2ccccc2)c1=O`, the residual activity was 107%.

For another assay, the target named is MYLK2 (human) (UniProt Q9H1R3). The assay is described as above. The following applies: compound 0.5 µM; ATP 10 µM.
In the case of `O=C1Nc2ccccc2/C1=C1/Nc2ccccc2/C1=N\OCCC(O)CO` (stereo not drawn), the residual activity is 27.3%.

Consider `Nc1nnc2[nH]c3ccccc3nc1-2`, for which the residual activity was 90.5%.

Regarding `Cn1sc(=O)n(Cc2ccccc2)c1=O`, the residual activity was determined as 101%.

A further assay deals with GSK3A (human) (UniProt P49840). The description is as above. The following applies: compound 0.5 µM; ATP 10 µM.
Sequence of GSK3A (human) (P49840 whole entry, looked up): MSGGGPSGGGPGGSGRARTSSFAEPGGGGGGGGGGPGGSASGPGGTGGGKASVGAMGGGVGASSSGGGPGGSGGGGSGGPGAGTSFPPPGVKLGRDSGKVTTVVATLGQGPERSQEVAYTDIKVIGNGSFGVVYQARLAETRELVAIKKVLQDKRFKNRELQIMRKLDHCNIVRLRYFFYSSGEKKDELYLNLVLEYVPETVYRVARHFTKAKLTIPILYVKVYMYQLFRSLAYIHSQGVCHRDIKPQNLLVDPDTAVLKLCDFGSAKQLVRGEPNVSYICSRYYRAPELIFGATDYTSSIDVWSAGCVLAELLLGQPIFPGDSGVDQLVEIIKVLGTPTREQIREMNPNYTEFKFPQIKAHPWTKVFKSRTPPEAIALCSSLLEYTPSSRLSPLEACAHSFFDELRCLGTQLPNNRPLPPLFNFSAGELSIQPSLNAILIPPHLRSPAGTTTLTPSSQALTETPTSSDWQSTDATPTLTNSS
Regarding `O=C1Nc2ccccc2/C1=C1/Nc2ccccc2/C1=N\OCCC(O)CO` (stereo not drawn), the residual activity amounted to 7.31%.

`Nc1nnc2[nH]c3ccccc3nc1-2`: the residual activity amounted to 91.6%.

Regarding `Cn1sc(=O)n(Cc2ccccc2)c1=O`, the residual activity was determined as 94.5%.

For a further assay, the target named is AURKA (human) (UniProt O14965). The description is as above. As to conditions: compound 0.5 µM; ATP 10 µM.
Sequence of AURKA (human) (O14965 whole entry, looked up): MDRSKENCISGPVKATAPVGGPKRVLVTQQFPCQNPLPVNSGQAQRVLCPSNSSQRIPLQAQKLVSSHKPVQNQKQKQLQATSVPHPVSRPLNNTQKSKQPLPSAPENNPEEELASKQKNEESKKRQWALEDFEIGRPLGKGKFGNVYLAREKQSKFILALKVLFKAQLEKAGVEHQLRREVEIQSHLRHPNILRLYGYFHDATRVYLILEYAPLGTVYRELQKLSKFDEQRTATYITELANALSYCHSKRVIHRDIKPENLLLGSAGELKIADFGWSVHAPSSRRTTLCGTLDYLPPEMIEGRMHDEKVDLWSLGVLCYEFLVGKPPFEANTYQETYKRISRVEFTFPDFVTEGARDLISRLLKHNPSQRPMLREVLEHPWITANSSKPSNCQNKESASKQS
Regarding `O=C1Nc2ccccc2/C1=C1/Nc2ccccc2/C1=N\OCCC(O)CO` (stereo not drawn), the residual activity amounted to 9.78%.

`Nc1nnc2[nH]c3ccccc3nc1-2`: the residual activity came out at 111%.

As to `Cn1sc(=O)n(Cc2ccccc2)c1=O`, the residual activity amounted to 104%.

The target in a further assay is EPHA3 (human) (UniProt P29320). The description is as above. As to conditions: compound 0.5 µM; ATP 10 µM.
As for `O=C1Nc2ccccc2/C1=C1/Nc2ccccc2/C1=N\OCCC(O)CO` (stereo not drawn), the residual activity is 69%.

Turning to `Nc1nnc2[nH]c3ccccc3nc1-2`, the residual activity was 95.2%.

Turning to `Cn1sc(=O)n(Cc2ccccc2)c1=O`, the residual activity was determined as 107%.

Another assay addresses NLK (human) (UniProt Q9UBE8). The description is as above. The following applies: compound 0.5 µM; ATP 10 µM.
With `O=C1Nc2ccccc2/C1=C1/Nc2ccccc2/C1=N\OCCC(O)CO` (stereo not drawn), the residual activity was determined as 101%.

As to `Nc1nnc2[nH]c3ccccc3nc1-2`, the residual activity worked out at 95.2%.

With `Cn1sc(=O)n(Cc2ccccc2)c1=O`, the residual activity is 105%.

As a reminder, the residual activity is the signal under treatment as a percentage of the control signal.
